Assay results reported in US20240350430A1, “GROWTH INHIBITOR OF METASTATIC HUMAN PROSTATE CANCER CELLS” (Watanabe Oyster Laboratory Co., Ltd., priority 2021, published 2024).

Test system: PC-3 cells
Test: Western blot of protein expression levels in PC-3 cells
Format: cell-based, human
Details: DHMBA 10 μM, three days
Method: The PC-3 cells (1×10^6 cells/10 ml, 100-mm dish) were cultured in a DMEM culture fluid containing 10% of FBS, 1% of P/S, and 1% of fungizone under 5% of CO2, at 37° C., for three days. In addition, the culture fluid contained the DHMBA (10 μM). After the culture, the cells were adjusted by adding a cell lysis buffer (Cell Signaling Technology, Danvers, MA, USA) containing proteolytic enzyme and a protein phosphatase activity inhibitor. The cell solution was centrifuged at 17,000×g at 4° C. for 10 minutes to collect the supernatant. An amount of protein in the supernatant was measured using Bio-Rad Protein Assay Dye (Bio-Rad Laboratories, Inc., Hercules, CA, USA) with albumin as reference protein. Protein samples were stored in a freezer at −80° C. until being used. Using 40 μg of a protein sample solution, the product was added to SDS polyacrylamide gel electrophoresis (SDS-PAGE, 12%) and separated. After that, the protein molecules were transferred to a nylon membrane. Immunoblot was performed on the membrane using an antibody that specifically bound to the protein molecules. The antibodies, such as Ras (cat. no. 3339, rabbit), Akt (cat. no. 9272, rabbit), mitogen-activated protein kinase (MAPK: cat. no. 4695, rabbit), phosphorylated-MAPK (cat. no. 4370, rabbit), mechanistic target of rapamycin (mTOR, cat. no. 4517, mouse), Rb (cat. no. 9309, mouse), p21 (cat. no. 2947, rabbit), caveolin-1 (cat. no. 3267, rabbit), and β-actin (cat. no. 3700, mouse), were purchased from Cell Signaling Technology (Danvers, MA, USA). Also, p53 (cat. no. sc-126, mouse), NF-κB p65 (cat. no. sc-109, rabbit), and integrin β1 (cat. no. sc-13590, mouse) were obtained from Santa Cruz Biotechnology, Inc. (Santa Cruz, CA, USA). In addition, rabbit anti-regucalcin antibody was purchased from Sigma-Aldrich (cat. no. HPA029103, rabbit). Target proteins were incubated at low temperature for 16 hours using the primary antibodies described above. After that, using a secondary antibody of horseradish peroxidase-conjugated secondary antibodies (Santa Cruz Biotechnology, Inc., mouse sc-2005 or rabbit sc-2305; diluted 1:1,000), incubation was performed for 60 minutes at room temperature. After that, protein bands were illuminated with chemiluminescence substrate (cat. no. 34577, Thermo Scientific, Rockford, IL, USA) and exposed and detected on X-ray films using a developer.
(§1) The PC-3 cells (1×10^6 cells/10 ml, 100-mm dish) were cultured under 5% of CO2, at 37° C., for three days in a DMEM culture fluid containing 10% of FBS, 1% of P/S, and 1% of fungizone. In addition, the culture fluid contained the DHMBA (10 μM). After the culture, the cells were adjusted by adding a cell lysis buffer (Cell Signaling Technology, Danvers, MA, USA) containing proteolytic enzyme and a protein phosphatase activity inhibitor. Using 40 μg of a protein sample solution, the product was separated by SDS polyacrylamide gel electrophoresis (SDS-PAGE, 12%). After that, the protein molecules were transferred to a nylon membrane. Immunoblot was performed on the membrane using an antibody that specifically bound to the protein molecules.
as §1, with “In FIG. 5(G), the” for “The”, “molecules. […]” for “molecules.”

For `COc1c(O)cc(CO)cc1O` [DHMBA, 3,5-dihydroxy-4-methoxybenzyl alcohol], the “expression level of Akt” value was “significantly inhibited”, the “expression level of MAP kinase” value was “significantly inhibited” and the “expression level of NF-κB p65” value was “significantly decreased”. The “expression level of PI3 kinase” value was “significantly inhibited”, the “expression level of Ras” value was “significantly inhibited” and the “expression level of Rb” value was “significantly increased”. The “expression level of caveolin-1” value was “significantly decreased”, the “expression level of integrin β1” value was “significantly decreased” and the “expression level of mTOR” value was “significantly inhibited”. For the same molecule, the “expression level of p21” value was “significantly increased”, the “expression level of p53” value was “significantly increased” and the “expression level of phospho-MAP kinase” value was “significantly inhibited”. The “expression level of regucalcin” value was “significantly increased”, the “level of activated caspase 3 (cleaved caspase-3)” value was “increased” and the “level of caspase 3” value was “increased”.
